Entries after “also recorded” stand apart in the source; their conditions may differ.
Experiments:
[1] = test system: CFA induced hypersensitivity in rat; assay: CFA induced hypersensitivity in rat assessed using weight bearing method; format: in vivo; conditions: 10 mg/kg, 24 hours post CFA, 1, 2 and 4 hours post treatment
Text: Intraplantar injection of Complete Freunds adjuvant (CFA) causes an inflammatory reaction which induces hypersensitivity and oedema, and mimics some aspects of clinical inflammatory pain. These effects can be investigated using equipment to measure weight bearing and plethysmometer.
Naive rats distribute their body weight equally between the two hind paws. However, when the injected (left) hind paw is inflamed and/or painful, the weight is re-distributed so that less weight is put on the affected paw (decrease in weight bearing on injured paw). Weight bearing through each hind limb was measured using a rat incapacitance tester (Linton Instruments, UK).
Rats were placed in the incapacitance tester with the hind paws on separate sensors and the average force exerted by both hind limbs was recorded over 4 seconds.
Base line weight bearing and paw volume readings were taken and hypersensitivity was induced via injection of CFA (Baseline weight bearing and paw volume recordings were taken prior to induction of insult. Inflammatory hypersensitivity was induced by intraplantar injection of CFA (100 μL of 1 mg/mL solution) intraplantar to the rats left hind paw.
Animals (Male, Sprague Dawley Rats (Charles River, UK), 212-260 g) were ranked and randomised to treatment groups according to the weight bearing CFA window in a Latin square design. […]

[2] = test system: MIA induced hyperalgesia in the rat; assay: MIA induced hyperalgesia in the rat, in vivo chronic pain model (weight bearing); conditions: 10 mg/kg p.o. daily day 3 to day 16, vs vehicle
Text: Intra-articular administration of Monosodium Iodoacetate (MIA) in the ipsilateral knee of Sprague Dawley rats leads to development of a robust and long-lasting hyperalgesia and allodynia associated initially with an inflammatory response.
Naive rats distribute their body weight equally between the two hind paws. However, when the injected (left) hind knee is inflamed and/or painful, the weight is re-distributed so that less weight is put on the affected limb (decrease in weight bearing on injured limb). Weight bearing through each hind limb is measured using a rat incapacitance tester (Linton Instruments, UK).
Osteoarthritis (OA) in rats ((Sprague Dawley, male, groups of 10) was induced via injection of MIA solution (Sigma, 12512), 25 μL of 80 mg/mL, (2 mg) into the knee joint of the left hind leg. Weight bearing was assessed on Days 3, 5, 7, 9, 12 & 16, following injection of MIA, for development of chronic pain. At Day 3 weight bearing measurements were taken and animals were ranked and randomised to treatment groups according to their MIA window in a Latin square design. […]
Weight bearing (g) readings were taken for both right and left hind paws and the difference calculated. Data are expressed as % ratio ipsilateral/contralateral ((WB left/WB right)*100) (mean±s.e.m.)
Calculation: Ipsilateral reading/contralateral reading x 100. […]

[3] = test system: CDAHFD diet-induced NASH in C57/BL6 mice; assay: Diet-induced (CDAHFD) mouse model of non-alcoholic steatohepatitis (NASH); format: in vivo; conditions: mouse liver
Text: This model uses a choline-deficient, L-amino acid-defined, high-fat diet (CDAHFD) consisting of 60 kcal % fat and 0.1% methionine to induce NASH.
C57/BL6 mice (Charles River) are divided into groups as set out below, the mice are 8 weeks (>20 grs) at the initiation of the induction phase.
• CDAHFD; Research Diets Inc., Ref. No. A06071302 • Control diet: normal diet (VRF 1, P), Special Diets Services
In order to induce a non-alcoholic steatohepatitis (NASH), animals will be fed with choline-deficient, L-amino acid-defined, high-fat diet (CDAHFD).
Mice were randomly assigned to a treatment group and treated according to schedule presented in the Table above until the evaluation phase.
Steady state PK sampling—Blood will be collected in K2-EDTA tubes to generate plasma. All blood samples will be processed for plasma by centrifugation (5,000 rpm for 10 minutes at 4° C.) within 30 minutes of collection. Plasma from each blood sample will be quickly frozen in liquid nitrogen and stored in a freezer maintained at −80° C. until analysis.
Final blood sample—Blood will be collected in tubes for serum preparation containing protease inhibitors. All blood samples will be processed by centrifugation (3,500 rpm for 15 minutes at 4° C.). Aliquots of obtained serum samples will be stored frozen at −80° C. until further analysis.
Tissue samples: The liver is harvested and portions of the left lateral lobe are stored for RNA gene expression analysis, TG assay, sectioned for OH proline measurement, and the rest placed in 10% formalin for histopathological evaluation. Histopathological evaluation includes sections stained with Sirius red to evaluate extent of fibrosis, and sections stained with F4/80 to assess macrophage accumulation.
A panel of 6 fibrosis genes (Col1A1, Timp1, Pai1, CTGF, TGFβ and Acta2), inflammation genes (TNFα, IL10 and CCL2) and 2 house keeping genes are used for gene expression analysis.

Cc1c[nH]c2ncnc(N3CCC(NC(=O)c4cc(N)ncc4F)CC3)c12 [Compound 1, 2-amino-5-fluoro-N-[1-(5-methyl-7H-pyrrolo[2,3-d]pyrimidin-4-yl)-4-piperidyl]pyridine-4-carboxamide]
hypersensitivity response (weight bearing) [1]: significantly inhibited | reversal of hypersensitivity (weight bearing) [2]: significant and marked reversal; also recorded: significant reversal when compared to vehicle at each time point | F4/80 quantification ([3]; day 73, 15 mg/kg/BID): significant effect | Sirius red fibrosis quantification ([3]; day 73, 15 mg/kg/QD and 15 mg/kg/BID): significant effect | expression levels of Pai1 (fibrosis gene panel) ([3]; day 73, at least the highest doses tested (5 mg/kg/QD, 15 mg/kg/QD, 15 mg/kg/BID p.o.), vs CDAHFD diet+vehicle): significant effect | expression levels of TGF (fibrosis gene panel) ([3]; day 73, at least the highest doses tested, vs CDAHFD diet+vehicle): significant effect

Source: patent US11136325B2, “Pyrrolopyrimidine and pyrrolopyridine derivatives” (GALAPAGOS NV, priority 2017, dated 2021)
